Test results reported in US20250009743A1, “METHODS OF TREATING CANCERS USING STING AGONISTS” (Dana-Farber Cancer Institute, Inc., priority 2021, published 2025).

System: mouse bone marrow-derived macrophages (BMDMs)
Assay: Polarization of mouse BMDMs / tumor cell-educated macrophages (flow cytometry, RNA-seq, morphology)
Assay type: cell-based
Description: Mouse macrophages and dendritic cells (DCs) were derived from the bone marrow (BM) of FVB/NJ mice by modifying protocols described in (Weischenfeldt J, Porse B. CSH Protoc 2008; Guo X, et al. J Immunol Methods 2016; 432:24-9). For generation of BM-derived macrophages (BMDMs), BM cells were seeded on ultra-low attachment plates (Corning) or petri dishes (Falcon) and cultured in DMEM supplemented with 10 ng/ml M-CSF (BioLegend, #576404), 10% FBS and 100 μg/mL penicillin-streptomycin. Fresh DMEM with 10 ng/ml M-CSF was added after 3 days, and cells were incubated for another 4 days before harvesting adherent cells (BMDMs). For DC differentiation, BM cells were seeded on tissue culture dishes (Corning) and cultured in RPMI 1640 supplemented with 20 ng/mL GM-CSF (Stem Cell Technologies, #78017), 10% FBS and 100 μg/mL penicillin-streptomycin. Fresh RPMI 1640 with 20 ng/mL GM13 CSF was added after 3 days, and non-adherent cells (DCs) were harvested after another 4 days. For preparation of tumor cell-conditioned media (CM), tumor cells were grown to 60% of confluence, washed twice with PBS, and then incubated with fresh DMEM for two days. CM were then harvested and centrifuged to collect the supernatant.
For flow cytometry analyses of tumor and TDLN samples, single-cell suspensions were obtained as described above (Tissue Digestion). Cells were stained in cold FACS buffer (PBS containing 0.2% BSA and 5 mM EDTA) with LIVE/DEAD Fixable Aqua Dead Cell Stain (Thermo Fisher) for 30 min on ice, followed by blocking with anti-CD16/32 (BioLegend) for 20 min on ice. Cells were then incubated in FACS buffer for 30 min on ice with antibodies specific to CD45 (clone 30-F11, BioLegend), TCR β chain (clone H57-597, BioLegend), CD38 (clone 145-2C11, BioLegend), CD4 (clone RM4-5, BioLegend), CD8a (clone 53-6.7, BioLegend), PD-1 (clone 29F.1A12, BioLegend), CD44 (clone IM7, BioLegend), CD62L (clone MEL-14, BioLegend), IFN-γ (clone XMG1.2, BioLegend), TNF-α (clone MP6-XT22, BioLegend), Granzyme B (clone NGZB, eBioscience), CD11c (clone N418, BioLegend), I-A/I-E (clone M5/114.15.2, BioLegend), CD80 (clone 16-10A1, BioLegend), CD86 (clone GL-1, BioLegend), CD103 (clone 2E7, BioLegend), CD11b (M1/70, BioLegend), F4/80 (clone BM8, BioLegend), phospho-TBK1 (Ser172) (clone D52C2, Cell Signaling Tech.) or phospho-IRF-3 (Ser396) (clone D601M, Cell Signaling Tech.). For intracellular staining, Foxp3/Transcription Factor Staining Buffer Set (eBioscience, #00-5523-00) was used for fixation and permeabilization. For cytokine analysis, cells were stimulated with Leukocyte Activation Cocktail with protein transport inhibitor Brefeldin A (BD Biosciences, #550583) at 37° C. for 4 hours prior to the staining. Analysis of ϵ-HA2X (Ser139) was performed according to manufacturer's instructions. Briefly, ice-cold 70% ethanol (Decon) was added dropwise to the cell pellet while vortexing. Cells were then incubated at −20° C. for 1 hour and washed three times with cold staining buffer. For the staining, 5 μL p-HA2X antibody (clone 2F3, BioLegend) was added to approximately 1×10^6 cells in 100 μL staining buffer and incubated at 4° C. for 30 min. For Annexin V and 7-AAD staining, cells were detached with accutase (Sigma, #A6964). The detached cells (from culture medium and accutase treatment) were washed twice with cold PBS, and then incubated with 5 μL FITC Annexin V (BioLegend, #640906) and 10 μL 7-AAD (BioLegend, #420404) in 100 μL Annexin V binding buffer (BioLegend, #422201) at room temperature for 15 min. Flow cytometry was performed on an LSR Fortessa HTS analyzer (BD Biosciences). All data were analyzed using FlowJo software.
For in vitro co-culture of tumor cells with macrophages, 2×10^5 tumor cells per well were co-cultured with macrophages at a ratio of 1:1 (BP cells: mouse BMDMs) or 1:1.5 (MDA-MB-436 cells: THP-1 macrophages) in 6-well plates with indicated drug treatments or DMSO vehicle control for two days. […]

[1] = BMDMs with BP-CM or BP/OL-CM, DMXAA 0.05 mg/mL, 24 hours, FIG. 7A

SMILES	gene expression of BMDMs (RNA-seq) (olaparib 5 μM, 24 hours, FIG. 3C)	macrophage polarization (M1-like / M2-like) (olaparib alone, two days, FIG. 3B)	CD86 expression of STING−/− TEMs (BMDMs from STING knockout mice, DMXAA 2 days, FIG. 7F)	macrophage morphology (BMDMs incubated with BP-CM, DMXAA 0.05 mg/mL, 24 hours, FIG. 8B)	expression of genes of anti-tumorigenic M1 signature [1]	expression of pro-tumorigenic M2 genes [1]	M1-like to M2-like ratio of TEMs (BP TEMs, DMXAA 0.05 mg/mL, two days, FIG. 7C)	TEM STING pathway activation (p-TBK1+p-IRF3+) (BP TEMs, DMXAA 24 hours, FIG. 7D)
O=C(c1cc(Cc2n[nH]c(=O)c3ccccc23)ccc1F)N1CCN(C(=O)C2CC2)CC1 [olaparib]	no significant direct effects	little effect	–	–	–	–	–	–
Cc1ccc2c(=O)c3cccc(CC(=O)O)c3oc2c1C [DMXAA, 5,6-dimethyl-xanthenone-4-acetic acid]	–	–	failed to increase	changed these cells to a “fried egg” shape	strongly stimulated	suppressed	reversed TEMs to M1-like macrophages	significantly increased
